From patent US6479548B2, “Substituted stilbenes as glucose uptake enhancers” (Telik, Inc., priority 2000, dated 2002)

Target: T1, complete β-kinase domain of the human insulin receptor (CKD) (Homo sapiens, UniProt P06213)
T1 construct: The complete β-kinase domain of the human insulin receptor (CKD); made in house
Test: 32P-CKD autophosphorylation assay
Format: biochemical
Conditions: 10 min; compound at 10 μM; phosphorylation of CKD expressed as % of the vehicle level; read-out: Activity (% vs. control)
Protocol: The complete β-kinase domain of the human insulin receptor (CKD) was expressed in, and purified from, baculovirus. CKD (4.0 μg/ml), in a solution of 29 mM HEPES (pH 7.6), 0.05% Triton X-100, 10 mM MgCl2, 2 mM MnCl2 (50 μl final volume), is combined with 50 μM ATP, and 5 μCi ^32P-ATP (3000 Ci/mmol).

T1 sequence (P06213 1023-1298 limits assumed): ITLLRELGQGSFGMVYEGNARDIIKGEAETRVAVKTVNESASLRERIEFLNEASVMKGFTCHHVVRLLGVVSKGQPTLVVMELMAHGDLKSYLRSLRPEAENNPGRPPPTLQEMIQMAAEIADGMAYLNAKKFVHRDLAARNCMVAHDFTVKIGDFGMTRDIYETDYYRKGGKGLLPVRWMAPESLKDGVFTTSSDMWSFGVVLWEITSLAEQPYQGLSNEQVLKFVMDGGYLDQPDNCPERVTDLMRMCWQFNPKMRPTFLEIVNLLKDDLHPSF

SMILES	activity at 10 µM
COC(=O)c1ccc(C(=O)N(C)c2ccc(C(=O)Nc3ccc(/C=C/c4ccc(OC)cc4)cc3C(=O)OC)cc2)cc1 [Compound 29, methyl 4-{N-[4-(N-{4-[(1E)-2-(4-methoxyphenyl)vinyl]-2-(methoxycarbonyl)-phenyl}carbamoyl)phenyl]-N-methylcarbamoyl}benzoate]	61%
COC(=O)c1ccc(C(=O)N(C)c2ccc(C(=O)Nc3ccc(/C=C/c4cccc(F)c4)cc3C(=O)OC)cc2)cc1 [Compound 37, methyl 4-{N-[4-(N-{4-[(1E)-2-(3-fluorophenyl)vinyl]-2-(methoxycarbonyl)phenyl}-carbamoyl)phenyl]-N-methylcarbamoyl}benzoate]	93%
COC(=O)c1ccc(/C=C/c2ccc(NC(=O)c3ccc(N(C)C(=O)c4ccc(C(=O)OC)cc4)cc3)cc2)cc1 [Compound 44, methyl 4-(N-{4-[N-(4-{(1E)-2-[4-(methoxycarbonyl)phenyl]vinyl}phenyl)-carbamoyl]phenyl}-N-methylcarbamoyl)benzoate]	97%
COC(=O)c1ccc(N(C(C)=O)c2ccc(C(=O)Nc3ccc(/C=C/c4ccc(OC)cc4)cc3C(=O)O)cc2)cc1 [Compound 30, 5-[(1E)-2-(4-methoxyphenyl)vinyl]-2-[(4-{[4-(methoxycarbonyl)phenyl]-N-methyl-carbonylamino}phenyl)carbonylamino]benzoic acid]	93%
COC(=O)c1ccc(N(C(C)=O)c2ccc(C(=O)Nc3ccc(/C=C/c4ccc(S(=O)(=O)O)cc4)cc3C(=O)OC)cc2)cc1 [Compound 36, 4-((1E)-2-{3-(methoxycarbonyl)-4-[(4-{[4-(methoxycarbonyl)phenyl]-N-methyl-carbonylamino}phenyl)carbonylamino]phenyl}vinyl)benzenesulfonic acid]	171%
COC(=O)c1ccc(N(C(C)=O)c2ccc(N(C(C)=O)c3ccc(/C=C/c4ccc(OC(C)(C)C)c(C(=O)O)c4)cc3)cc2)cc1 [Compound 49, 5-((1E)-2-{4-[(4-{[4-(methoxycarbonyl)phenyl]-N-methylcarbonylamino}phenyl)-N-methylcarbonylamino]phenyl}vinyl)-2-(tert-butoxy)benzoic acid]	81%
COC(=O)c1ccc(N(C(C)=O)c2ccc(C(=O)Nc3ccc(/C=C/c4ccccc4)c(C(=O)O)c3)cc2)cc1 [Compound 39, 2-((1E)-2-phenylvinyl)-5-[(4-{[4-(methoxycarbonyl)phenyl]-N-methylcarbonyl-amino}phenyl)carbonylamino]benzoic acid]	64%
COC(=O)c1ccc(C(=O)N(C)c2ccc(C(=O)Nc3ccc(/C=C/c4ccc(F)cc4)cc3C(=O)OC)cc2)cc1 [Compound 34, methyl 4-{N-[4-(N-{4-[(1E)-2-(4-fluorophenyl)vinyl]-2-(methoxycarbonyl)phenyl}-carbamoyl)phenyl]-N-methylcarbamoyl}benzoate]	88%
COc1ccc(/C=C/c2ccc(N(C)C(=O)c3ccccc3)c(C(=O)O)c2)cc1 [Compound 28, 5-[(1E)-2-(4-methoxyphenyl)vinyl]-2-(N-methylphenylcarbonylamino)benzoic acid]	75%
COc1ccc(/C=C/c2ccc(N(Cc3ccc(C(=O)O)cc3)C(=O)c3ccc(N(C(C)=O)c4ccc(C(=O)O)cc4)cc3)c(C(=O)O)c2)cc1 [Compound 57, 5-[(1E)-2-(4-methoxyphenyl)vinyl]-2-(N-[(4-carboxyphenyl)methyl]{4-[(4-carboxy-phenyl)-N-methylcarbonylamino]phenyl}carbonylamino)benzoic acid]	107%
COC(=O)c1ccc(N(C(C)=O)c2ccc(C(=O)Nc3ccc(/C=C/c4cccc(CC(=O)O)c4)cc3)cc2)cc1 [Compound 46, 2-[3-((1E)-2-{4-[(4-{[4-(methoxycarbonyl)phenyl]-N-methylcarbonylamino}-phenyl)carbonylamino]phenyl}vinyl)phenyl]acetic acid]	91%
COC(=O)c1ccc(C(=O)N(C)c2ccc(C(=O)Nc3ccc(/C=C/c4ccccc4F)cc3C(=O)OC)cc2)cc1 [Compound 32, methyl 4-{N-[4-(N-{4-[(1E)-2-(2-fluorophenyl)vinyl]-2-(methoxycarbonyl)phenyl}-carbamoyl)phenyl]-N-methylcarbamoyl}benzoate]	81%

More lines, now with the values ahead:

activity at 10 µM	SMILES
105%	COc1ccc(C(=O)Nc2ccc(/C=C/c3ccccc3)cc2C(=O)O)cc1OC [Compound 53, 5-((1E)-2-phenylvinyl)-2-[(3,4-dimethoxyphenyl)carbonylamino]benzoic acid]
59%	CN(C(=O)c1ccccc1)c1ccc(/C=C/c2ccccc2)cc1C(=O)O [Compound 25, 5-((1E)-2-phenylvinyl)-2-(N-methylphenylcarbonylamino)benzoic acid]
73%	COC(=O)c1cc(/C=C/c2ccccc2)ccc1NC(=O)c1ccccc1 [Compound 27, methyl 5-((1E)-2-phenylvinyl)-2-[phenylcarbonylamino)benzoate]
94%	O=C(O)COc1cc(OCC(=O)O)cc(C(=O)Nc2ccc(/C=C/c3ccccc3)cc2C(=O)O)c1 [Compound 59, 5-((1E)-2-phenylvinyl)-2-{[3,5-bis(carboxymethoxy)phenyl]carbonylamino}benzoic acid]
107%	COc1cc(C(=O)Nc2ccc(/C=C/c3ccccc3)cc2C(=O)O)cc(OC)c1OC [Compound 26, 5-((1E)-2-phenylvinyl)-2-[(3,4,5-trimethoxyphenyl)carbonylamino]benzoic acid]
54%	COC(=O)c1cc(/C=C/c2ccccc2)ccc1NC(=O)c1ccc(OC)c(OC)c1 [Compound 52, methyl 5-((1E)-2-phenylvinyl)-2-[(3,4-dimethoxyphenyl)carbonylamino]benzoate]
177%	CC(=O)N(c1ccc(C(=O)O)cc1)c1ccc(C(=O)Nc2ccc(/C=C/c3ccc(F)cc3)cc2C(=O)O)cc1 [Compound 35, 5-[(1E)-2-(4-fluorophenyl)vinyl]-2-({4-[(4-carboxyphenyl)-N-methylcarbonyl-amino]phenyl}carbonylamino)benzoic acid]
78%	CC(=O)N(c1ccc(C(=O)O)cc1)c1ccc(C(=O)Nc2ccc(/C=C/c3ccccc3F)cc2C(=O)O)cc1 [Compound 33, 5-[(1E)-2-(2-fluorophenyl)vinyl]-2-({4-[(4-carboxyphenyl)-N-methylcarbonyl-amino]phenyl}carbonylamino)benzoic acid]
105%	O=C(Nc1ccc(/C=C/c2ccccc2)c(C(=O)O)c1)c1ccccc1 [Compound 38, 2-((1E)-2-phenylvinyl)-5-(phenylcarbonylamino)benzoic acid]
80%	O=C(Nc1ccc(/C=C/c2ccccc2)cc1C(=O)O)c1cc(O)cc(O)c1 [Compound 41, 5-((1E)-2-phenylvinyl)-2-[(3,5-dihydroxyphenyl)carbonylamino]benzoic acid]
121%	COc1ccc(/C=C/c2ccc(NC(=O)c3ccc(N(C(C)=O)c4ccc(C(=O)O)cc4)cc3)c(C(=O)O)c2)cc1 [Compound 31, 5-[(1E)-2-(4-methoxyphenyl)vinyl]-2-({4-[(4-carboxyphenyl)-N-methylcarbonyl-amino]phenyl}carbonylamino)benzoic acid]

Same assay, conditions: compound at 10 μM; phosphorylation of CKD expressed as % of the vehicle level

Activity (% vs. control)	SMILES
51%	COc1ccc(/C=C/c2ccc(NC(=O)c3ccc4c(c3)OCO4)cc2)cc1 [Compound 56, N-{4-[(1E)-2-(4-methoxyphenyl)vinyl]phenyl}-2H-benzo[d]1,3-dioxolen-5-yl-carboxamide]
